US8101158B1, “Methods for treating cerebrovascular disease comprising administering an agent that inhibits prokineticin receptor activity” (The Regents of the University of California, priority 2007, dated 2012)
“Also recorded” adds a separate entry of the source.

Columns and labels:
[1] = system: PK2 mRNA; test: PK2 mRNA in situ hybridization in PTZ seizure model; format: in vivo, mice; settings: data not shown
Protocol: (§1) All injections were administered through intraperitoneal injections (i.p.) Pilocarpine: to reduce muscarinic peripheral effects, all animals injected with pilocarpine were given 2 mg/kg of methylscopolamine (dissolved in saline 0.4 mg/ml) 30 minutes prior to injection. Pilocarpine-induced seizure was then initiated by injecting littermate mice (C57BL-6 or mix C57BL-6 with CD1) i.p. with (200 or 400 mg/kg) pilocarpine, respectively. Thereafter, animals were then assessed for seizure, as describe above, and sacrificed according to the following time course (30, 1 hr, 3 hrs, 6 hrs, 12 hrs, 36 hrs, 72 hrs). For groups within the pentylenetetrazol (metrazol, PTZ), mice were administered 75 mg/kg PTZ and subsequently monitored for 20 minutes. PTZ kindling were accomplished by administering 45 mg/kg PTZ every other day for 14 days. […] Each animal was injected and monitored for S5 seizure. […]
(§2) In situ hybridization was done according to Cheng et al 2001. […] Sections were then cut at 20-μm and processed for in situ as described by Winzer-Serhan et al. mRNA distributions from autoradiograms and emulsion-dipped sections were then analyzed and quantified with a system called MCID (Imaging Research). Calibration curve was generated by optical density versus radioactivity (disintegrations per minute (d.p.m.) per mg tissue wet weight) using 14 C standards. […]

[2] = system: PK2 mRNA; test: PK2 mRNA in situ hybridization after pilocarpine-induced seizure; format: in vivo, mice; settings: CeA; for PK2 mRNA induction after pilocarpine in diazepam-pretreated animals: CA3 and dentate gyrus, diazepam prior to pilocarpine
Protocol: All injections were administered through intraperitoneal injections (i.p.) Pilocarpine: to reduce muscarinic peripheral effects, all animals injected with pilocarpine were given 2 mg/kg of methylscopolamine (dissolved in saline 0.4 mg/ml) 30 minutes prior to injection. Pilocarpine-induced seizure was then initiated by injecting littermate mice (C57BL-6 or mix C57BL-6 with CD1) i.p. with (200 or 400 mg/kg) pilocarpine, respectively. Thereafter, animals were then assessed for seizure, as describe above, and sacrificed according to the following time course (30, 1 hr, 3 hrs, 6 hrs, 12 hrs, 36 hrs, 72 hrs). For groups within the pentylenetetrazol (metrazol, PTZ), mice were administered 75 mg/kg PTZ and subsequently monitored for 20 minutes. PTZ kindling were accomplished by administering 45 mg/kg PTZ every other day for 14 days. Animals that reach S5 on the first day were not included in the experiments. Each animal was injected and monitored for S5 seizure. Once S5 is reached, the animal was considered kindled, and was taken out of the injection regimen.
as §2, with “2001. Antisense and sense riboprobes containing the 3′ UTR of mouse PK2 (GenBank accession number AF487279; residues 1147-2211), PKR1 (3′ UTR) and PKR2 (3′ UTR) were generated.” for “2001.”
A time course analysis for PK2 mRNA induction and upregulation in the pilocarpine-induced seizure model was performed. A total of seven time points (30 minutes, 1 hr, 3 hrs, 6 hrs, 12 hrs, 36 hrs, and 72 hrs post pilocarpine injection) were analyzed. […]

[3] = system: PKR2 mRNA; test: PKR2 mRNA in situ hybridization after pilocarpine-induced seizure; format: in vivo, mice
Protocol: as §1, §2

[4] = Pharmacokinetic study, brain concentration; format: in vivo; settings: intraperitoneal injection of 60 mg/kg in rats
Protocol: (§3) Via custom synthesis, 10 grams of one of the morpholine carboximide derivatives was obtained, with chemical name of (±)-4-Benzyl-N-(3,4-dihydro-2H-1,5-benzodioxepin-7-ylmethyl)-N-isobutylmorpholine-2-carboxamide, compound I (FIG. 5). Compound I was tested using the in vitro ischemia model. […] We utilized compound I as a parent compound to test the potential therapeutic effect of blocking PKR2 in cerebral ischemia models.

[5] = system: brain infarct in experimental stroke model; test: Experimental stroke model, infarct volume after i.p. compound I; format: in vivo, rats; settings: 50 mg/kg i.p., 30 minutes pre-ischemia; n=5, p<0.05; listed as compound I
Protocol: TTC staining and infarct quantification was performed as follows. 24 hours after reperfusion, rats were perfused with ice cold PBS and the brain was sectioned into 2 mm thickness. Brain sections were stained in 2,3,5 triphenyl tetrazolium chloride (TTC) solution for 15 minutes or until infarct was visible, followed by fixation with 4% PFA overnight. Next day the brain sections were aligned from rostral to caudal and brain sections were scanned. Infarct size and volume was quantitated using the software Image J. Infarct and cortex was outlined and measured using Image J. Percent infarct represents infarct area over entire cortex area. Percent volume was measured by multiplying the area by the section thickness (2 mm). Compound I reduced infarct size in ischemia models. The effect of compound I in experimental stroke models was tested. […] Compound I-treated rats had smaller infarct at almost every level.

[6] = biological target: T1, PKR2 (Homo sapiens, UniProt Q8NFJ6); test: Antagonism of PK2-induced calcium influx (luminescence) in CHO cells stably expressing PKR2; format: cell-based; settings: luminescence (RLU), read-out: inhibition constant (Ki) for blocking activation of PKR2 by PK2
T1 construct: expressed in transfected cells
Protocol: FIG. 4 is a graphical representation showing the antagonistic effect of Compound I in Chinese Hamster Ovary cells that stably express PKR2. Dose-dependent response of PKR2 activation by PK2 in the presence of different concentrations of Compound I was measured with a luminometer. RLU is an index for calcium influx measurement for this luminescence-based assay. The dose-dependent calcium influx activated by PK2 was antagonized by Compound I. The inhibition constant obtained from this experiment was approximately 15 nM.
as §3

[7] = system: brain infarct after distal MCAO; test: Distal MCAO experimental stroke with ICV delivery of PK2, TTC infarct quantitation; format: in vivo, rats; settings: PK2 0.3 nmol ICV within one hour after reperfusion, 24 hr, n=5, p<0.001
Protocol: Distal Middle Cerebral Artery Occlusion (dMCAO) was performed in the PK2 intracerebroventricular […] infusion study. Anesthesia induced by 5% isoflurane and maintained by 2-3% isoflurane. A ventral midline incision was made, and the two CCAs were isolated. […] were placed around the CCAs, and the animal was placed on its right side. A 2-cm vertical scalp incision was made midway between the left eye and ear. The temporalis muscle was bisected and a 2-mm burr hole was made at the junction of the zygomatic arch and squamous bone to expose the distal MCA. The dura was cut and the distal MCA was permanently electro-cauterized. The CCA were then occluded with clips for 1 hour, and the animals were sacrificed and perfused after 24 hr. PK2 (0.3 nmol) was stereotaxically infused prior or post-ischemia. […] Body temperature, ECG, and respiration rate were monitored every 15 minutes and kept in physiological ranges. […] TTC staining and infarct quantification was performed as follows. […] Infarct size and volume was quantitated using the software Image J. Infarct and cortex was outlined and measured using Image J. Percent infarct represents infarct area over entire cortex area. Percent volume was measured by multiplying the area by the section thickness (2 mm). […] FIGS. 2B and C are graphs showing quantitation of infarct volume. […]

[8] = system: GABA (α1β1γ2) currents in oocytes with PKR2; test: GABA-evoked currents in Xenopus oocytes, two-electrode voltage clamp; format: cell-based, Xenopus laevis; settings: GABA 10 uM; PK2 10 nM-30 nM; over 60 min; holding potential -70 mV
Protocol: FIG. 13 is a series of graphical representations showing PK2-induced reduction of GABA (α1β1γ2) currents. […] GABA (10 uM) evoked GABA currents without PK2 show no appreciable reduction over a 70 min course. Addition of PK2 (10 nM-30 nM) decreased GABA-evoked current over a period of 60 min. FIG. 13B is a graphical representation showing the average percent reduction of normalized GABA-evoked currents after addition of PK2. […] One-way Anova with post-Dunnet correction indicates (p<0.05) across all time points when compared to normalized base.
Multiple studies have found a complex system of inhibition, disinhibition, and various physiological consequences, depending on the circuitry and subtypes involved; all of which have important consequences in epileptogenesis. The role of PK2 and GABAA receptor, especially with the αβγ-GABAA which are found in the amygdale was investigated. […]. To do this study, a mixture of RNA containing α1β1γ2S with or without PKR2 was injected into Xenopus oocytes. GABA currents were then measured using the two-electrode voltage clamp with a holding potential of −70 mV, 4-6 days post injection. Repeated exposure (every 10 mins) with GABA (10 μM) to Xenopus oocytes (αβγ-GABAA or […] containing) induced a reproducible and stable current over a long-term recording (>1 hr).

[9] = system: locomotor running wheel activity; settings: PK2 0.3 nmol; cited from earlier work

T1 sequence (Q8NFJ6 whole entry): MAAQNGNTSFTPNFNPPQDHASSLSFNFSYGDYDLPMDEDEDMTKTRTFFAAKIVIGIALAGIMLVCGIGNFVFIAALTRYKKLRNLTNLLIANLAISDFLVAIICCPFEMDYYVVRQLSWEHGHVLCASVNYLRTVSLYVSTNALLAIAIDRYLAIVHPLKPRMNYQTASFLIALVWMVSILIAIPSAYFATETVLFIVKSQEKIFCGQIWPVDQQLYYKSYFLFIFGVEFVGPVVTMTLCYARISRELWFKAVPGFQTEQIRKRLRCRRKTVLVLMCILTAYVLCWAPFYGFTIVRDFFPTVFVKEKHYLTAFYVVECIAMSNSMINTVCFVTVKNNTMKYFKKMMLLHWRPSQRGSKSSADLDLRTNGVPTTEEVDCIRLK

C1CCc2nnnn2CC1 [PTZ, Pentylenetetrazol]
PK2 mRNA induction in PTZ seizure model [1]: only a modest upregulation of PK2 mRNA at the medial nucleus of the amygdale

CC[C@@H]1C(=O)OC[C@@H]1Cc1cncn1C [pilocarpine]
peak PK2 mRNA induction over basal level ([2]; 6 hr post pilocarpine injection): over 100 fold
peak PKR2 mRNA induction over basal level ([3]; CA1/CA2, 6 hr post pilocarpine injection): about 7 fold

CC(C)CN(Cc1ccc2c(c1)OCCCO2)C(=O)C1CN(Cc2ccccc2)CCO1 (racemic) [Compound I, (±)-4-Benzyl-N-(3,4-dihydro-2H-1,5-benzodioxepin-7-ylmethyl)-N-isobutylmorpholine-2-carboxamide]
brain concentration [4]: significant brain concentration
infarct volume versus vehicle PEG400 [5]: significantly reduced infarct volume
Ki [6]: ~15 nM

CN1C(=O)CN=C(c2ccccc2)c2cc(Cl)ccc21 [Diazepam, diazepam]
PK2 mRNA induction after pilocarpine in diazepam-pretreated animals [2]: eliminated induction; also recorded: blocks induction of PK2
PK2 mRNA induction after pilocarpine in diazepam-pretreated animals ([2]; listed as diazepam): completely abolished
PKR2 mRNA induction after pilocarpine with diazepam ([3]; seizure activity blocked with diazepam): eliminated induction

B1: PK2: secreted peptide ligand of G-protein coupled receptors PKR1 and PKR2 (protein, UniProt Q9HC23 28-129, looked up)
Prokineticin-2: AVITGACDKDSQCGGGMCCAVSIWVKSIRICTPMGKLGDSCHPLTRKNNFGNGRQERRKRKRSKRKKEVPFFGRRMHHTCPCLPGLACLRTSFNRFICLAQK
infarct volume versus saline [7]: significantly increased overall average infarct volume
maximum inhibition of GABA-evoked currents [8]: 75 % of normalized baseline
duration of inhibitory response in locomotor running wheel activity [9]: 3 to 5 h
